Measurements reported in article PMC10401713, “Silver(I)-Catalyzed Synthesis of Cuneanes from Cubanes and their Investigation as Isosteres” (Journal of the American Chemical Society, 2023).
Values after ≈ are worked out from the molar mass of the structure shown. Where two headings read alike, the source gives them in different places.

Tests used:
[1] = pKa in H2O by pH-metric titration (Sirius T3); format: physicochemical; settings: water, average of 3 measurements
Method: (§1) 6. Physicochemical Measurements
(§2) The logP, pKa in H2O, and aqueous solubility were performed on a Sirius T3 instrument (Pion). The device consists of a pH-meter electrode, a robot that prepares the solutions needed to perform the measurements, and a UV-vis spectrophotometer. Basic titration is performed with a 0.5 M KOH buffer. Acidic titration is performed with a 0.5 M HCl buffer.
(§3) Log P was determined potentiometrically by using the "Shake flask" method, which consists of dissolving part of the solute in question in a volume of n-octanol and water, then performing pH […]
(§4) To obtain the pKa values, a pH-metric titration experiment was carried out. It can measure pKa values between 2 and 12. An acidic or base titrant was added to reach a starting pH at which the sample is ionized. Then, small volumes of 0.5 M HCl or KOH titrant were added and the pH was measured after each addition. Potentiometric measurement of basic compounds were done from pH 2 to pH 12 by adding 0.5 M KOH solution. Potentiometric measurement of acid ic compounds (20, S1, and 14) were done from pH 12 to pH 2 by adding 0.5 M HCl solution. Measurement points were done every 0.2 pH value. After each addition, the sample was stirred for 60 seconds and the pH value was then collected. The titration experiments were done 3 times and the stated values are averages of the 3 […]
(§5) (1 picture or pasted object on this page, not shown here)

[2] = logP measurement (Sirius T3, potentiometric shake-flask method, n-octanol/water); format: physicochemical; settings: n-octanol and water
Method: as §1, §2, §3, §4, §5

[3] = Aqueous solubility (CheqSol method, Sirius T3); format: physicochemical; settings: for solubility: water, aqueous buffer, thermodynamic from solid
Method: as §1
as §2, with “HCl buffer. […]” for “HCl buffer.”
as §5
Solubility measurements were performed using the CheqSol method developed by Pion.22 Because in most cases, compounds are more soluble at pH values where they ionized, the analyte was solubilized in acidic water before pH-titration was performed, measuring the UV-vis spectrum after each addition. The precipitation point was detected from the reduction of the light transmission during UV-vis measurement, or manually when not obvious. The pH-titration was repeated several times around the precipitation point to determine the solubility value by averaging. […]
aqueous solubility (mM) –a […]

[4] = Human liver microsome stability; format: in vitro ADME; settings: liver microsomes, pH 7.4, 1 µM compound, 0.5 mg/mL protein, NADPH, 37 °C
Method: (§6) 7. Microsome Stability Measurements for the Cuneane Analog of Sonidegib Microsome stability measurements were performed by Sygnature Discovery (Nottingham, United […]
(§7) The microsomal stability of a test compound is assessed by spiking compound into tissue microsomes containing NADPH in buffer and sampling for up t o 1 h at 37 °C. Following protein precipitation and centrifugation, the samples are analy zed by UPLC-MS-MS.
(§8) To assess the metabolic stability of a test compound in tissue microsomes.
(§9) • Compound identifier and molecular formula
(§10) • 20 µL of 1 mM test compound in DMSO or 1 mg solid
(§11) Dilutions of a 1 mM test compound DMSO stock solution are prepared in 0.01 M phosphate buffered saline (pH7.4)) so that the final DMSO concentration is 0.1% and the final test compound concentration tested is 1 µM. Following addition of protein (0.5 mg/mL final) and NADPH, the samples are pre-incubated for 10 min prior to the start of the incubation by the addition of […]. The test compound will be incubated (n = 2; 1 µM final concentration) at 37 °C with tissue microsomes. […]
(§12) All the samples will be mixed, centrifuged and the supernatants analysed by UPLC-MS-MS.
(§13) The intrinsic clearance (Clint) and half-life (t1/2) values will be determined from the slope of the parent depletion curve. […]

[5] = Mouse liver microsome stability; format: in vitro ADME; settings: CD1, mouse, liver microsomes, pH 7.4, 1 µM compound, 0.5 mg/mL protein, NADPH, 37 °C
Method: as §6, §7, §8, §9, §10, §11, §12, §13

[6] = parameters: method as in PMID 36763965; settings: literature value; ref [8b]; cited from earlier work
[7] = parameters: method as in doi:10.1021/ja983441f; settings: literature value; ref ([32]); cited from earlier work
[8] = parameters: method as in PMID 36763965; settings: literature value; ref [8b]; cited from earlier work; remark: listed apart in the source
[9] = parameters: method as in PMID 36763965; settings: literature value; ref [8b]; cited from earlier work; remark: listed apart in the source

COC(=O)C12C3C4C1C1C2C3C41C(=O)O (stereo not drawn) [S1]
pKa [1]: 3.96 ± 0.01
logP [2]: 0.02 ± 0.01
solubility [3]: 149 mM (≈ 30.7 mg/mL)

COC(=O)C12C3C4C5C1C2C3C45C(=O)O (stereo not drawn) [compound 14]
pKa [1]: 3.99 ± 0.02
logP [2]: 0.72 ± 0.01
solubility [3]: 210 mM (≈ 43.3 mg/mL)

C[C@@H]1CN(c2ccc(NC(=O)C34C5C6C3C3C4C3(c3ccc(OC(F)(F)F)cc3)C65)cn2)C[C@H](C)O1 (stereo partly drawn) [compound 19]
microsomal CLint at 1 µM [4]: 76 µL/min/mg
half-life at 1 µM ([4]; read-out: human liver microsome stability t1/2): 19 min
microsomal CLint at 1 µM [5]: 61 µL/min/mg
half-life at 1 µM ([5]; read-out: mouse liver microsome stability t1/2): 23 min
logP [2]: 4.74 ± 0.23
aqueous solubility [3]: too low to be measured

COC(=O)c1ccc(C(=O)O)cc1 [compound 20, 4-(methoxycarbonyl)benzoic acid]
pKa [1]: 3.84 ± 0.01
logP [2]: 2.02 ± 0.02
solubility [3]: 1.38 mM (≈ 0.249 mg/mL)

Cc1c(C(=O)Nc2ccc(N3C[C@@H](C)O[C@@H](C)C3)nc2)cccc1-c1ccc(OC(F)(F)F)cc1 [sonidegib]
aqueous solubility [6]: <1.6 × 10^–3 (ref [8b]) mM
logP [7]: 4.26 (ref ([32]))
mouse liver microsome stability Clint [8]: 26 µL/min/mg
mouse liver microsome stability t1/2 [8]: 53 min
human liver microsome stability Clint [9]: 20 µL/min/mg
human liver microsome stability t1/2 [9]: 70 min
